Patent publication US20100093613A1, “METHODS FOR IDENTIFYING AGENTS AND THEIR USE FOR THE PREVENTION OR STABILIZATION OF FIBROSIS” (priority 2007, published 2010)

System: Bronchial epithelial cells + Fibroblasts
Assay: BioMAP BF4T system (IL-4 + TNF-α), scoring of readout parameters
Type: cell-based, human
Design: key: 1 = modulated in desired direction, 0 = not (−1 if opposite)
Settings: for MMP-3 score / PAI-1 score: desired change decrease; for MMP-1 score / uPA score: desired change increase
Method: In the “BF4T” system, bronchial epithelial cells, usually primary human bronchial epithelial cells, are cultured with fibroblasts, usually primary human fibroblasts, in the presence of TNF-α and IL-4. In addition to the factors, stimuli of interest that may be included in the culture medium include TGF-β, IL-5, II-10, IL-9, Tryptase, GM-CSF, II-17, CD40L, Histamine, IgE stimulated Mast Cells, LTB4 stimulated neutrophils, and PBMC stimulated with LPS or SAg.
Human neonatal fibroblasts (HDFn) and normal human bronchial epithelial cells (BrEPI) are used. Human lung fibroblasts (adult or neonatal) could also be used. HDFn are cultured in DMEM/F12 (50/50) from Cellgro, supplemented with LSGS kit (from Cascade Biologics); fetal bovine serum, 2% v/v, hydrocortisone 1 μg/ml, human epidermal growth factor 10 ng/ml, basic fibroblast growth factor 3 ng/ml and heparin 10 μg/ml, and penicillin/streptomycin amphotericin B solution (PSA). BrEPI are cultured in supplemented BEBM medium (Cambrex) at 2×10^4/ml. BrEPI may also be cultured with Bronchial/Tracheal Epithelial Cell Serum-Free Growth Medium (Cell Applications, Inc.) or F12/DMEM supplemented with 10 μg/ml rhu-insulin, 10 μg/ml transferrin, 10 ng/ml epidermal growth factor (EGF), 1 μM ethanolamine, 25 μg/ml aprotinin, 25 μg/ml glucose, 1 μM phosphoethanolamine, 5 μM triiodothyronine, 50 nM selenium, 1 nM hydrocortisone, 1 nM progesterone, 5 μM forskolin, 10 μM heregulin β177-244, 5 μl/ml fibronectin, 4 μl/ml bovine pituitary extract and retinoid acid. HDFn are plated for assays at 3×10^4 cells/ml. After 2 days, media is replaced with BrEPI media containing 10^4 BrEPI cells and cultured for a further 2 days.
Upon reaching confluency, the test agent or buffer control is added and the following are applied: 5 ng/ml of IL-4 and 5 ng/ml TNF-α (BF4T). After another 24 hours incubation (37° C., 5% CO2) the cultures are evaluated for the following parameters: CD90, Keratin 8/18, Eotaxin-3, I-TAC, ICAM-1, EGFR, IL-1α, IL-8, MCP-1, MMP-9, MMP-1, MMP-3, PAI-1, TGF-β3, TIMP-2, uPA, tPA, CD87 and VCAM-1. Additional readouts of interest may include IP-10, Elafin/SKALP, Endothelin-1, Gro-a, CD119, IL-6, GM-CSF, IL-16, FGF, PDGF, CD44, E-cadherin, CD40, IL-15Ralpha, CD1d, CD80, CD86, TARC, eotaxin-1, CD95, MCP-4 and MIP-3a. Other stimuli of interest include: TGFbeta, IL-5, II-10, IL-9, Tryptase, GM-CSF, II-17, CD40L, Histamine, IgE stimulated Mast Cells, LTB4 stimulated neutrophils, and PBMC stimulated with LPS or SAg.
Each screened compound is scored according to its modulation of the selected readout parameters. Compounds receive a positive score (score of 1) or negative score (score of 0) for each readout parameter set forth in Table 2 that is modulated in the desired direction. […] Parameters may be penalized by making the positive score a −1 for parameters where regulation is opposite to the desired direction.
Cell culture. Human umbilical vein endothelial cells (HUVEC) were pooled from multiple donors, cultured according to standard methods, and plated into microtiter plates at passage 4. Cell culture medium for all systems containing HUVEC included hydrocortisone. Coronary artery smooth muscle cells (CASM3C) and umbilical artery smooth muscle cells (HSM3C) were cultured according to standard procedures. Peripheral blood mononuclear cells (PBMC) were prepared from buffy coats from normal human donors according to standard methods. Monocyte-derived macrophages were differentiated in the presence of M-CSF for 7 d according to standard procedures. Human dermal fibroblasts were pooled from 3 donors, cultured according to standard methods, and plated confluent 24 h before stimulation. Cell culture medium for all systems containing fibroblasts and keratinocytes contained low hydrocortisone. Epidermal keratinocytes and bronchial epithelial cells from 3 donors were cultured according to standard procedures and pooled when plated into microtiter plates.

| Molecule | MMP-3 score | PAI-1 score | MMP-1 score | uPA score |
| --- | --- | --- | --- | --- |
| (R)-(−)-Apomorphine | 0 | 0 | 0 | 0 |
| O=C(O)c1ccccc1Nc1cccc(C(F)(F)F)c1 [Flufenamic Acid] | 0 | 1 | 0 | 0 |
| O=c1cc(-c2ccc(O)c(O)c2)oc2cc(O)cc(O)c12 [Luteolin] | 0 | 1 | 0 | 0 |
| Cn1cnc([N+](=O)[O-])c1Sc1ncnc2nc[nH]c12 [Azathioprine] | 0 | 0 | 0 | 0 |
| C=C1CC[C@H](O)C/C1=C/C=C1\CCC[C@]2(C)[C@@H]([C@H](C)/C=C/[C@H](C)C(C)C)CC[C@@H]12 [Calciferol] | 0 | 0 | 0 | 1 |
| COc1cc(-c2ccc(=O)[nH]n2)ccc1OC(F)F [Zardaverine] | 0 | 1 | 0 | 0 |
| CCc1oc2ccccc2c1C(=O)c1cc(Br)c(O)c(Br)c1 [Benzbromarone] | 1 | 0 | 0 | 0 |
| Antimycin A | 0 | 0 | 0 | 1 |
| Cc1c(Cl)cccc1Nc1ccccc1C(=O)O [Tolfenamic Acid] | 1 | 1 | 0 | 0 |
| CCCCN(CCCC)CCC(O)c1cc2c(Cl)cc(Cl)cc2c2cc(C(F)(F)F)ccc12 (stereo not drawn) [Halofantrine] | 0 | 1 | 0 | 0 |
| C[C@]12C=CC(=O)C=C1CC[C@@H]1[C@@H]2[C@@H](O)C[C@@]2(C)[C@H]1CC[C@]2(O)C(=O)CO [Prednisolone] | 0 | 0 | 0 | 0 |
| Fc1ccc(C(OCCN2CCN(CCCc3ccccc3)CC2)c2ccc(F)cc2)cc1 [GBR 12909] | 0 | 0 | 0 | 0 |
| COc1cc2c(c(OC)c1OC)-c1ccc(OC)c(=O)cc1[C@@H](NC(C)=O)CC2 [Colchicine] | 0 | 0 | 0 | 0 |
| COC(=O)Nc1nc2ccc(SC(C)C)cc2[nH]1 [Methiazole] | 1 | 1 | 0 | 0 |
| CCN(CC)CCNc1ccc(CO)c2sc3ccccc3c(=O)c12 [Hycanthone] | 0 | 0 | 0 | 0 |
